Measured values as given in patent publication US9493432B2, “Cyclopentylbenzamide derivatives and their use for the treatment of psychotic and cognitive disorders” (Takeda Pharmaceutical Company Limited, priority 2013, dated 2016).

Key:
human orexin receptor 2 = human orexin receptor 2 (Homo sapiens (Human), UniProt O43614); assay: Orexin antagonist activity, intracellular calcium FLIPR assay (orexin receptor 2); format: cell-based; settings: RBL-2H3 cells stably expressing human orexin receptor 2; Ca2+ dye FLIPR; compound 15 minutes before orexin-A at approximately 80% maximal response; read-out: Human Orexin2R IC50
Experimental: (§1) Orexin antagonist activity was determined by measuring changes in intracellular calcium levels using a Ca^2+ sensitive fluorescent dye. The changes in fluorescent signal were monitored by Fluorescent Imaging Plate Reader (FLIPR™) technology available from Molecular Devices, LLC, U.S.A. Orexin mediated increases in intracellular Ca^2+ concentration were readily detected upon activation with orexin-A. Twenty-four hours prior to the assay, RBL-2H3 cells stably expressing either human orexin receptor 1 or human orexin receptor 2 were seeded in cell culture medium in black, clear-bottom 384-well plates (commercially available from Corning Inc., U.S.A.) and grown overnight at 37° C., 5% CO2. On the day of the assay, cell culture media was removed and cells were loaded with Calcium 5 Dye (commercially sold by Molecular Devices, LLC, U.S.A.) for 1 hour at 37° C., 5% CO2. Test compounds (at 10 point half log concentration response curves from 10 μM) were added to cells for 15 minutes prior to the addition of orexin-A to all wells, to achieve a final concentration that produces approximately an 80% maximal response. The IC50 values were determined from ten point concentration response curves. Curves were generated using the average of two wells for each data point.

human orexin receptor 1 = human orexin receptor 1 (Homo sapiens (Human), UniProt O43613); assay: Orexin antagonist activity, intracellular calcium FLIPR assay (orexin receptor 1); format: cell-based; settings: RBL-2H3 cells stably expressing human orexin receptor 1; Ca2+ dye FLIPR; compound 15 minutes before orexin-A at approximately 80% maximal response; read-out: Human Orexin1R IC50
Experimental: as §1

Chain of human orexin receptor 1 (O43613 whole entry): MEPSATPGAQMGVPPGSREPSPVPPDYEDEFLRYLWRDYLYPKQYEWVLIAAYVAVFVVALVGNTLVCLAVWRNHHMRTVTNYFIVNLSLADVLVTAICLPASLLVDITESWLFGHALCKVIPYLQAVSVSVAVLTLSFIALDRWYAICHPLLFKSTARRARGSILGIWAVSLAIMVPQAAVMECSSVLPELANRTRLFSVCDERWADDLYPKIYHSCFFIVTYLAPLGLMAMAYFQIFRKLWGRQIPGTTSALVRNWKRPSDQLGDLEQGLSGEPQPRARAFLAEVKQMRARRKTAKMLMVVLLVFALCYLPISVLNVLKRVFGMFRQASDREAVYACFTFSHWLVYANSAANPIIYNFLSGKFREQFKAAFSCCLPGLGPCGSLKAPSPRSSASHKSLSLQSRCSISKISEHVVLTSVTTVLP
Chain of human orexin receptor 2 (O43614 whole entry): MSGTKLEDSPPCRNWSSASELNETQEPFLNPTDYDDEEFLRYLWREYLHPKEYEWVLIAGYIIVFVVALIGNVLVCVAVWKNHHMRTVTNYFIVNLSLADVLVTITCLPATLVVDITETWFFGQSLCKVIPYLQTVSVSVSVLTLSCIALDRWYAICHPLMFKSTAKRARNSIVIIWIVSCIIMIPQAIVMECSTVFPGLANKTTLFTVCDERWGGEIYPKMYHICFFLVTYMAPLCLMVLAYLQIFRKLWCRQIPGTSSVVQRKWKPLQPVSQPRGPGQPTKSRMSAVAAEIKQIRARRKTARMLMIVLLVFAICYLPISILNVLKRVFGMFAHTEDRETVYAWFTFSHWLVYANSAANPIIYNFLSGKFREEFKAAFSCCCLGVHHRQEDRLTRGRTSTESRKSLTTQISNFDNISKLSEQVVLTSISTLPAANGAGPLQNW

| IC50 (human orexin receptor 2) [nM] | IC50 (human orexin receptor 1) [nM] | SMILES |
| --- | --- | --- |
| > 10000 | 35 | COc1cccc(OC)c1C(=O)N[C@H]1CCC[C@@H]1Nc1nc2cc(Cl)ccc2s1 [Example 6, N-[(1S,2S)-2-[(5-Chloro-1,3-benzothiazol-2-yl)amino]cyclopentyl]-2,6-dimethoxybenzamide] |
| 1900 | 26 | COc1cccc(OC)c1C(=O)N[C@H]1CCC[C@H]1Nc1nc2ccccc2o1 [Example 7, N-[(1S,2R)-2-[(1,3-Benzoxazol-2-yl)amino]cyclopentyl]-2,6-dimethoxybenzamide] |
| 2100 | 35 | COc1cccc(OC)c1C(=O)N[C@H]1CCC[C@@H]1N(C)c1nc2ccc(F)cc2s1 [Example 8, N-[(1S,2S)-2-[(6-Fluoro-1,3-benzothiazol-2-yl)(methyl)amino]cyclopentyl]-2,6-dimethoxybenzamide] |
| > 10000 | 99 | COc1cccc(OC)c1C(=O)N[C@H]1CCC[C@@H]1Nc1nc2ccccc2o1 [Example 9, N-[(1S,2S)-2-[(1,3-Benzoxazol-2-yl)amino]cyclopentyl]-2,6-dimethoxy-benzamide] |
| 7200 | 210 | COc1cccc(OC)c1C(=O)N[C@H]1CCC[C@@H]1Nc1nc2ccc(Cl)cc2s1 [Example 10, N-[(1S,2S)-2-[(6-Chloro-1,3-benzothiazol-2-yl)amino]cyclopentyl]-2,6-dimethoxybenzamide] |
| 1800 | 360 | COc1cccc(OC)c1C(=O)N[C@@H]1CCC[C@H]1Nc1nc2ccccc2s1 [Example 11, N-[(1R,2R)-2-[(1,3-Benzothiazol-2-yl)amino]cyclopentyl]-2,6-dimethoxybenzamide] |
| 3500 | 470 | COc1cccc(OC)c1C(=O)N[C@@H]1CCC[C@H]1Nc1nc2ccccc2o1 [Example 12, N-[(1R,2R)-2-[(1,3-Benzoxazol-2-yl)amino]cyclopentyl]-2,6-dimethoxy-benzamide] |
| 5300 | 580 | COc1cccc(OC)c1C(=O)N[C@@H]1CCC[C@@H]1Nc1nc2ccc(Cl)cc2s1 [Example 13, N-[(1R,2S)-2-[(6-Chloro-1,3-benzothiazol-2-yl)amino]cyclopentyl]-2,6-dimethoxybenzamide] |
| 680 | 1000 | COc1cccc(OC)c1C(=O)N[C@@H]1CCC[C@H]1Nc1nc2ccc(Cl)cc2s1 [Example 14, N-[(1R,2R)-2-[(6-Chloro-1,3-benzothiazol-2-yl)amino]cyclopentyl]-2,6-dimethoxybenzamide] |
| 160 | 35 | COc1cccc(OC)c1C(=O)N[C@H]1CCC[C@H]1Nc1nc2ccc(Cl)cc2s1 [Example 15, N-[(1S,2R)-2-[(6-Chloro-1,3-benzothiazol-2-yl)amino]cyclopentyl]-2,6-dimethoxybenzamide] |
| 2000 | 13 | Cc1ccc(-n2nccn2)c(C(=O)N[C@H]2CCC[C@@H]2Nc2nc3ccc(F)cc3s2)c1 [Example 16, N-[(1S,2S)-2-[(6-Fluoro-1,3-benzothiazol-2-yl)amino]cyclopentyl]-5-methyl-2-(2H-1,2,3-triazol-2-yl)benzamide] |
| 460 | 25 | CCOc1cccc(OCC)c1C(=O)N[C@H]1CCC[C@H]1Nc1nc2ccccc2o1 [Example 18, N-[(1S,2R)-2-[(1,3-Benzoxazol-2-yl)amino]cyclopentyl]-2,6-diethoxy-benzamide] |
| 7300 | 15 | Cc1ccc(-n2nccn2)c(C(=O)N[C@H]2CCC[C@@H]2Nc2nc3ccccc3s2)c1 [Example 19, N-[(1S,2S)-2-[(1,3-Benzothiazol-2-yl)amino]cyclopentyl]-5-methyl-2-(2H-1,2,3-triazol-2-yl)benzamide] |
| 4100 | 290 | Cc1ccc(-n2nccn2)c(C(=O)N[C@H]2CCC[C@@H]2Nc2ccc3ccccc3n2)c1 [Example 20, 5-Methyl-N-[(1S,2S)-2-[(quinolin-2-yl)amino]cyclopentyl]-2-(2H-1,2,3-triazol-2-yl)benzamide] |
| 8600 | 23 | COc1cccc(OC)c1C(=O)NC1CN(C(=O)OCc2ccccc2)CC1Nc1nc2ccc(Cl)cc2s1 (stereo not drawn) [Example 22, Benzyl cis-3-[(6-chloro-1,3-benzothiazol-2-yl)amino]-4-[(2,6-dimethoxybenzene)amido]pyrrolidine-1-carboxylate] |
| 620 | 65 | CCOC(=O)N1CC(NC(=O)c2c(OC)cccc2OC)C(Nc2nc3ccc(Cl)cc3s2)C1 (stereo not drawn) [Example 23, Ethyl cis-3-[(6-Chloro-1,3-benzothiazol-2-yl)amino]-4-[(2,6-dimethoxy-benzene)amido]pyrrolidine-1-carboxylate] |
| 8500 | 52 | Cc1ccc(-n2nccn2)c(C(=O)NC2CCCC2Cc2ccc3ccccc3n2)c1 (stereo not shown) [Example 27, 5-Methyl-N-[2-(quinolin-2-ylmethyl)cyclopentyl]-2-(2H-1,2,3-triazol-2-yl)benzamide] |
| 1900 | 140 | CCOc1ccc(C)cc1C(=O)NC1CCCC1Cc1ccc2ccccc2n1 (stereo not shown) [Example 28, 2-Ethoxy-5-methyl-N-[2-(quinolin-2-ylmethyl)cyclopentyl]-benzamide] |
| 2900 | 550 | COc1cccc(OC)c1C(=O)NC1CCCC1Cc1ccc2ccccc2n1 (stereo not shown) [Example 29, 2,6-Dimethoxy-N-[2-(quinolin-2-ylmethyl)cyclopentyl]benzamide] |
| 370 | 320 | CCOc1cccc(OCC)c1C(=O)NC1CCCC1Cc1ccc2ccccc2n1 (stereo not shown) [Example 30, 2,6-Diethoxy-N-(2-(quinolin-2-ylmethyl)cyclopentyl)benzamide] |
| 3300 | 92 | CCOc1ccc(C)cc1C(=O)NC1CCCC1Cc1ccc2ccccc2n1 (stereo not shown) [Example 31, 2-Ethoxy-5-methyl-N-(2-(quinolin-2-ylmethyl)cyclopentyl)-benzamide] |
| 980 | 900 | COc1cccc(OC)c1C(=O)NC1CCCC1Cc1nc2ccc(Cl)cc2s1 (stereo not shown) [Example 32, N-{2-[(6-Chloro-1,3-benzothiazol-2-yl)methyl]cyclopentyl}-2,6-dimethoxybenzamide] |
| 1100 | 4.7 | COc1cccc(OC)c1C(=O)N(C)[C@H]1CCC[C@@H]1Nc1nc2ccc(F)cc2s1 [Example 34, N-[(1S,2S)-2-[(6-Fluoro-1,3-benzothiazol-2-yl)amino]cyclopentyl]-2,6-dimethoxy-N-methylbenzamide] |
| 4300 | 6.7 | O=C(N[C@H]1CCC[C@@H]1Nc1nc2ccc(F)cc2s1)c1ccccc1-n1cccn1 [Example 35, N-[(1S,2S)-2-[(6-Fluoro-1,3-benzothiazol-2-yl)amino]cyclopentyl]-2-(1H-pyrazol-1-yl)benzamide] |
| 5400 | 8.3 | O=C(N[C@H]1CCC[C@@H]1Nc1nc2ccc(F)cc2s1)c1cc(F)ccc1-n1nccn1 [Example 36, 5-Fluoro-N-[(1S,2S)-2-[(6-fluoro-1,3-benzothiazol-2-yl)amino]cyclopentyl]-2-(2H-1,2,3-triazol-2-yl)benzamide] |
| 3500 | 11 | O=C(N[C@H]1CCC[C@@H]1Nc1nc2ccc(F)cc2s1)c1ccccc1Cl [Example 37, 2-Chloro-N-[(1S,2S)-2-[(6-fluoro-1,3-benzothiazol-2-yl)amino]cyclopentyl]benzamide] |
